The values below come from patent US8912216B2, “Hetaryl-[1,8]naphthyridine derivatives” (Merck Patent GmbH, priority 2010, dated 2014).

Molecules are shown by their SMILES.

One assay concerns the target T1, GST-ALK5 (Homo sapiens, UniProt P36897).
T1 sequence (P36897 34-503): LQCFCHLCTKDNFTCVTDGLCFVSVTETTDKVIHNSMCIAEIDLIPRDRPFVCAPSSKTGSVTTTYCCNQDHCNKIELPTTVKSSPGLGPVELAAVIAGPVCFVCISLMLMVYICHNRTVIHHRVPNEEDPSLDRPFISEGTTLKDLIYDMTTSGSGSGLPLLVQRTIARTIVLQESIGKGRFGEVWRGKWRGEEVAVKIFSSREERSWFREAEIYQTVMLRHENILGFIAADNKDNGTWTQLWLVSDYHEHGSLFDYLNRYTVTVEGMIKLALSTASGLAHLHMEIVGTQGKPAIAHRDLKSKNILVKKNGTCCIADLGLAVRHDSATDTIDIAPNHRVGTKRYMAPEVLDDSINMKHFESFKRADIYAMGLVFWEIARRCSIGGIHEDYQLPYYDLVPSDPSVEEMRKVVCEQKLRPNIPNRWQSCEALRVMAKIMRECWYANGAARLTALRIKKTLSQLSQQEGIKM
Briefly: In-vitro (enzyme) kinase assay, 384-well flashplate (Example 36). In kind it is biochemical. Particulars: GST-ALK5, GST-SMAD2 substrate, 3 mM ATP, 30° C., 45 min; read-out: TβR activity (Example 36). A digest of the protocol: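 Radiometric flashplate assay: 31.2 nM GST-ALK5 phosphorylating 439 nM GST-SMAD2 with 3 mM ATP plus ³³P-ATP, in HEPES/MgCl2/MnCl2/DTT/BSA buffer pH 7.4, 45 min at 30 °C, 5-10 compound concentrations. EDTA stop, filtration and washing, then radioactivity counted; IC50 derived from the curve.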

For assay [1], the system named is TGF-beta-induced phosphorylation of Smad2 and Smad3 in Mv1-Lu cells. Nature of the assay: Inhibition of Smad2/3 phosphorylation in Mv1Lu cells (Example 35A). The class given is cell-based, mink Mustela vison. As to conditions: Neogale vison, Mv1-Lu cells, TGF-beta 1 5 ng/ml, phospho-Smad2/3 ELISA, read-out: TβR activity (Example 35A). A digest of the protocol:
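Serum-starved (16-20 h) Mv1-Lu mink lung epithelial cells were pre-incubated 1.5 h with compound dilutions (0.2% DMSO), then stimulated 1 h with 5 ng/ml TGF-beta 1. Phospho-Smad2 (Ser465/467)/Smad3 (Ser423/425) in lysates was measured by ELISA. IC50 came from dose-response fits between stimulated and unstimulated controls.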
In general terms: An ELISA detects its analyte on a solid surface through an enzyme-linked reagent.

Regarding `COCCN1CCC(n2cc(-c3cncc(-c4cc(-c5cc(F)ccc5F)nc5ncccc45)c3)cn2)CC1` [compound 50, 2-(2,5-Difluoro-phenyl)-4-(5-{1-[1-(2-methoxy-ethyl)-piperidin-4-yl]-1H-pyrazol-4-yl}-pyridin-3-yl)-[1,8]naphthyridine], the IC50 (at GST-ALK5; in assay [1]) was less than 100 nM in each case.

Regarding `Fc1ccccc1-c1cc(-c2cncc(-c3cnn(CCCN4CCOCC4)c3)c2)c2cccnc2n1` [compound 87, 2-(2-Fluoro-phenyl)-4-{5-[1-(3-morpholin-4-yl-propyl)-1H-pyrazol-4-yl]-pyridin-3-yl}-[1,8]naphthyridine], the figures for the IC50 (on GST-ALK5; in assay [1]) were less than 100 nM and 100 to 1000 nM, respectively.

`Fc1ccc(F)c(-c2cc(-c3cncc(-c4cnn(CCN5CCCC5)c4)c3)c3cccnc3n2)c1` [compound 26, 2-(2,5-Difluoro-phenyl)-4-{5-[1-(2-pyrrolidin-1-yl-ethyl)-1H-pyrazol-4-yl]-pyridin-3-yl}-[1,8]naphthyridine]: the IC50 (at GST-ALK5; in assay [1]) was less than 100 nM throughout.

As to `Cn1cc(-c2cncc(-c3cc(-c4cccc(C(F)(F)F)c4)nc4ncccc34)c2)cn1` [compound 14, 4-[5-(1-Methyl-1H-pyrazol-4-yl)-pyridin-3-yl]-2-(3-trifluoromethyl-phenyl)-[1,8]naphthyridine], the IC50 at GST-ALK5 lay within 100 to 1000 nM; in assay [1] it was 1000 to 10000 nM.

As to `Cn1cc(-c2cncc(-c3cc(-c4cc(Cl)ccc4F)nc4ncccc34)c2)cn1` [compound 7, 2-(5-chloro-2-fluoro-phenyl)-4-[5-(1-methyl-1H-pyrazol-4-yl)-pyridin-3-yl]-[1,8]naphthyridine], the IC50 is less than 100 nM on GST-ALK5 and 100 to 1000 nM in assay [1].

For `CN1CCN(c2cccc(-c3cncc(-c4cc(-c5cc(Cl)ccc5F)nc5ncccc45)c3)n2)CC1` [compound 141, 2-(5-Chloro-2-fluoro-phenyl)-4-[6-(4-methyl-piperazin-1-yl)-[2,3′]bipyridinyl-5′-yl]-[1,8]naphthyridine], the IC50 (at GST-ALK5; in assay [1]) was 100 to 1000 nM in each case.

In the case of `CC(=O)Nc1ccc(-c2cncc(-c3cc(-c4cc(Cl)ccc4F)nc4ncccc34)c2)nn1` [compound 122, N-(6-{5-[2-(5-Chloro-2-fluoro-phenyl)-[1,8]naphthyridin-4-yl]-pyridin-3-yl}-pyridazin-3-yl)-acetamide], the IC50 (on GST-ALK5; in assay [1]) was 100 to 1000 nM in each case.

Turning to `Fc1ccccc1-c1cc(-c2cncc(-c3cnc4[nH]ncc4c3)c2)c2cccnc2n1` [compound 80, 2-(2-Fluoro-phenyl)-4-[5-(1H-pyrazolo[3,4-b]pyridin-5-yl)-pyridin-3-yl]-[1,8]naphthyridine], the IC50 (on GST-ALK5; in assay [1]) was 100 to 1000 nM throughout.

Consider `CN1CCC(n2cc(-c3cncc(-c4cc(-c5ccccc5F)nc5ncccc45)n3)cn2)CC1` [compound 85, 2-(2-Fluoro-phenyl)-4-{6-[1-(1-methyl-piperidin-4-yl)-1H-pyrazol-4-yl]-pyrazin-2-yl}-[1,8]naphthyridine], for which the IC50 was less than 100 nM on GST-ALK5 and 100 to 1000 nM in assay [1].

Turning to `Fc1ccc(Cl)cc1-c1cc(-c2cncc(-c3ccc(CCN4CCCC4)cc3)c2)c2cccnc2n1` [compound 172, 2-(5-Chloro-2-fluoro-phenyl)-4-{5-[4-(2-pyrrolidin-1-yl-ethyl)-phenyl]-pyridin-3-yl}-[1,8]naphthyridine], the IC50 (at GST-ALK5; in assay [1]) was less than 100 nM throughout.

In the case of `CN1CCC(n2cc(-c3cncc(-c4cc(-c5ccccc5F)nc5ncccc45)c3)nn2)CC1` [compound 55, 2-(2-Fluoro-phenyl)-4-{5-[1-(1-methyl-piperidin-4-yl)-1H-[1,2,3]triazol-4-yl]-pyridin-3-yl}-[1,8]naphthyridine], the IC50 (on GST-ALK5; in assay [1]) was less than 100 nM throughout.

As to `NCCc1cccc(-c2cncc(-c3cc(-c4cc(Cl)ccc4F)nc4ncccc34)c2)c1` [compound 166, 2-(3-{5-[2-(5-Chloro-2-fluoro-phenyl)-[1,8]naphthyridin-4-yl]-pyridin-3-yl}-phenyl)-ethylamine], the IC50 (on GST-ALK5; in assay [1]) was less than 100 nM in each case.
